Data: patent publication US10792274B2, “Dehydroacetic acid (DHAA) and derivative for uses in treating cancer” (Emory University, priority 2016, dated 2020)
“Also recorded” adds a separate entry of the source.

How the values were obtained:
[1] = molecular target: BRAF WT-MEK1 binding (Homo sapiens, UniProt P15056); assay: cell-free in vitro coupled protein-protein binding and kinase assay; assay type: biochemical; conditions: in the presence of acetoacetate
Experimental: (§1) Whether DHAA inhibits BRAF V600E directly was examined. […] In contrast, DHAA had no effect on BRAF WT-MEK1 binding or MEK1 phosphorylation in a control experiment using purified BRAF WT incubated with MEK1 in the presence of acetoacetate (FIG. 4I left panel). […] This is physiologically consistent with the acetoacetate levels determined as approximately 300 μM in stable HMGCL knockdown A375 and A2058 cells.

[2] = molecular target: BRAF V600E-MEK1 binding (Homo sapiens, UniProt P15056, V600E); assay: as above; assay type: biochemical
Experimental: as §1

[3] = tested on: WM-266-4 cells expressing BRAF V600D; assay: melanoma cell proliferation; assay type: cell-based
[4] = molecular target: T1, BRAF V600E (Homo sapiens, UniProt P15056, V600E); assay: BRAF V600E kinase activity (Vmax and Km), MEK1 as substrate; assay type: biochemical
Experimental: as §1

[5] = tested on: SK-MEL-5 cells expressing BRAF V600E; assay: melanoma cell proliferation; assay type: cell-based
[6] = tested on: hepatomas; conditions: rats fed 4-(methylamino)azobenzene; cited from earlier work
[7] = molecular target: BRAF V600D (Homo sapiens, UniProt P15056, V600D); assay: 14C-labeled acetoacetate binding assay; conditions: in the presence of 300 μM 14C-labeled acetoacetate
Experimental: (§2) BRAF wild type and mutant proteins were incubated with increasing concentrations of ^14C-labeled acetoacetate.
(§3) A series of radiometric metabolite-protein interaction analyses were performed using ^14C labeled acetoacetate incubated with purified BRAF variants in the presence and absence of DHAA.

[8] = molecular target: BRAF V600R (Homo sapiens, UniProt P15056, V600R); assay: 14C-labeled acetoacetate binding assay; conditions: in the presence of 300 μM 14C-labeled acetoacetate
Experimental: as §2, §3

[9] = tested on: A2058 cells expressing BRAF V600E; assay: melanoma cell treatment: proliferation, MEK1/ERK1/2 phosphorylation, BRAF-MEK1 binding; assay type: cell-based, human
[10] = tested on: BRAF V600E-expressing human melanoma A2058 cells; assay: A2058 xenograft in nude mice; assay type: in vivo
Text: Xenograft tumor growth and in nude mice inoculated with BRAF V600E-positive human melanoma A2058 fed with normal or high-fat diets followed by intraperitoneal injection with DHAA.

[11] = tested on: BRAF V600E-expressing human melanoma A375 cells; assay: A375 xenograft in nude mice; assay type: in vivo
[12] = tested on: A375 cells expressing BRAF V600E; assay: melanoma cell treatment: proliferation, MEK1/ERK1/2 phosphorylation, BRAF-MEK1 binding; assay type: cell-based, human
[13] = molecular target: T2, FLAG-tagged BRAF V600E (Homo sapiens, UniProt P15056, V600E); assay: cellular thermal shift assay, lysates of transfected 293T cells; assay type: binding; conditions: 400 μM
T2 construct: FLAG; expressed in transfected cells; host or cells: 293T cells (lysates)
Text: (§4) Whether functional inhibition of acetoacetate would attenuate BRAF V600E tumor growth was examined. Dehydroacetic acid (DHAA) (FIG. 4A) is an inhibitory homologue of acetoacetate.

[14] = tested on: Me1-ST parental or control cells expressing BRAF WT or tBRAF; assay: immortalized melanocyte treatment: proliferation, MEK-ERK activation, BRAF-MEK1 binding; assay type: cell-based
[15] = chronic injection of DHAA to nude mice (tolerability); assay type: in vivo
[16] = molecular target: T1, BRAF V600E; assay: thermal melt shift assay, purified recombinant protein; assay type: binding
Experimental: Arrows in the panel indicate melting temperatures at 0 μM (left) and 400 μM (right).
as §4

[17] = tested on: Me1-ST cells expressing BRAF V600E; assay: immortalized melanocyte treatment: proliferation, MEK-ERK activation, BRAF-MEK1 binding; assay type: cell-based
[18] = serum and tumor metabolite levels and body weight of xenograft mice; assay type: in vivo
[19] = molecular target: T1, BRAF V600E; assay: 14C-labeled acetoacetate binding assay (radiometric metabolite-protein interaction)
Experimental: as §2, §3

[20] = BRAF V600E pre-treated with acetoacetate (300 μM)
[21] = DHAA at 200 μM, acetoacetate at 300 μM
[22] = co-treatment with DHAA, high-fat diet
[23] = tumors harvested from xenograft mice

T1 sequence (P15056 whole entry V600E): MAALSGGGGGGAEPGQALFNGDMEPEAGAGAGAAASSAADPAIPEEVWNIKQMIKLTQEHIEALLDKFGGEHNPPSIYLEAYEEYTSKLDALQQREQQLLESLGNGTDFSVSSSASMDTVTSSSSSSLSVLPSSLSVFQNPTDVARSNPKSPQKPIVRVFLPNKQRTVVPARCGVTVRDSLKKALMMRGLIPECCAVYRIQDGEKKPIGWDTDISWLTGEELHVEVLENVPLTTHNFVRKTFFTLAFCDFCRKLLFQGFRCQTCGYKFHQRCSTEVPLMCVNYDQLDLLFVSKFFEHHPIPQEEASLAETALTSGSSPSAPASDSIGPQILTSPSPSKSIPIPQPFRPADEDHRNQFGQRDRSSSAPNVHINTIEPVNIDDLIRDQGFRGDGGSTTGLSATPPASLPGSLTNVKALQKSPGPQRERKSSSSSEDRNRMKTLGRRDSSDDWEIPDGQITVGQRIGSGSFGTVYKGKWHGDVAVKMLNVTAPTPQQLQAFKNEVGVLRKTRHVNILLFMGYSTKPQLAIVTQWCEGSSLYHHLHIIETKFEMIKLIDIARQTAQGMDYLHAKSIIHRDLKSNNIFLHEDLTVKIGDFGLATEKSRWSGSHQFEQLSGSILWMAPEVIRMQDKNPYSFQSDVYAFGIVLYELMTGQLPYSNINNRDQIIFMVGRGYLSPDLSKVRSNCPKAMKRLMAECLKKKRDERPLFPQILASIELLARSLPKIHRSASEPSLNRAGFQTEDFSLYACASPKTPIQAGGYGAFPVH
Sequence of BRAF V600E-MEK1 binding (P15056 whole entry V600E): as above
T2 sequence (P15056 whole entry V600E): as above
Sequence of BRAF WT-MEK1 binding (P15056 whole entry): as the sequence (P15056 whole entry V600E) above, with E600V counted along it
Sequence of BRAF V600D (P15056 whole entry V600D): as the sequence (P15056 whole entry V600E) above, with E600D counted along it
Sequence of BRAF V600R (P15056 whole entry V600R): as the sequence (P15056 whole entry V600E) above, with E600R counted along it

CC(=O)c1c(O)oc(C)cc1=O [DHAA, 3-Acetyl-2-hydroxy-6-methyl-4H-pyran-4-one]
BRAF WT-MEK1 binding [1]: had no effect | MEK1 phosphorylation [1]: had no effect | acetoacetate-enhanced MEK1 binding to BRAF V600E [2, 20]: effectively inhibited | phosphorylation of V600E-bound MEK1 [2, 20]: effectively inhibited | BRAF V600E-MEK1 binding and phosphorylation of MEK1 enhanced by acetoacetate [2, 21]: inhibit BRAF V600E-MEK1 binding and phosphorylation of MEK1 | cell proliferation [3]: selectively inhibited cell proliferation | activating effect of acetoacetate on BRAF V600E (increased Vmax, decreased Km) ([4]; in the presence of acetoacetate (300 μM)): effectively reversed the activating effect of acetoacetate | BRAF V600E kinase activity (Vmax and Km) ([4]; increasing concentrations of DHAA alone): did not affect BRAF V600E kinase activity | cell proliferation [5]: selectively inhibited cell proliferation | induction of hepatomas [6]: inhibitory effect | Ki [7]: ~88 µM | Ki [8]: ~91 µM | BRAF V600E-MEK1 association [9]: selectively inhibited | cell proliferation [9]: selectively inhibited cell proliferation; also recorded: selectively inhibits | phosphorylation of MEK1 and ERK1/2 [9]: selectively inhibited phosphorylation of MEK1 and ERK1/2 | high-fat diet-dependent enhancement of BRAF V600E-MEK1 binding in tumors ([10]; DHAA, high-fat diet): significantly attenuated | high-fat diet-dependent enhancement of cell proliferation rates (Ki67) in tumors ([10]; DHAA, high-fat diet): significantly attenuated | high-fat diet-dependent enhancement of phosphorylation of MEK1 and ERK1/2 in tumors ([10]; DHAA, high-fat diet): significantly attenuated | high-fat diet-enhanced tumor growth potential [10, 22]: effectively reversed the enhanced tumor growth potential; also recorded: reverses high-fat diet-enhanced BRAF V600E tumor growth | HMGCL expression in tumors ([10]; mouse, in vivo): without affecting HMGCL expression | BRAF V600E-MEK1 binding in tumors ([10]; single agent): reduced binding between BRAF V600E-MEK1 | cell proliferation rates in tumors (Ki67 IHC staining) ([10]; single agent): reduced cell proliferation rates | phosphorylation of MEK1 and ERK1/2 in tumors ([10]; single agent): selectively inhibited phosphorylation of MEK1 and ERK1/2 | xenograft tumor growth (growth rates, sizes, masses) ([10]; single agent, normal diet): effectively inhibited xenograft tumor growth rates, sizes and masses | high-fat diet-dependent enhancement of BRAF V600E-MEK1 binding in tumors ([11]; DHAA, high-fat diet): significantly attenuated | high-fat diet-dependent enhancement of cell proliferation rates (Ki67) in tumors ([11]; DHAA, high-fat diet): significantly attenuated | high-fat diet-dependent enhancement of phosphorylation of MEK1 and ERK1/2 in tumors ([11]; DHAA, high-fat diet): significantly attenuated | high-fat diet-enhanced tumor growth potential [11, 22]: effectively reversed the enhanced tumor growth potential | HMGCL expression in tumors ([11]; mouse, in vivo): without affecting HMGCL expression | BRAF V600E-MEK1 binding in tumors ([11]; single agent): reduced binding between BRAF V600E-MEK1 | cell proliferation rates in tumors (Ki67 IHC staining) ([11]; single agent): reduced cell proliferation rates | phosphorylation of MEK1 and ERK1/2 in tumors ([11]; single agent): selectively inhibited phosphorylation of MEK1 and ERK1/2 | xenograft tumor growth (growth rates, sizes, masses) ([11]; single agent, normal diet): effectively inhibited xenograft tumor growth rates, sizes and masses | BRAF V600E-MEK1 association [12]: selectively inhibited | cell proliferation [12]: selectively inhibited cell proliferation; also recorded: selectively inhibits | phosphorylation of MEK1 and ERK1/2 [12]: selectively inhibited phosphorylation of MEK1 and ERK1/2 | affinity for BRAF V600E relative to acetoacetate [13]: higher affinity than acetoacetate | binding in cellular thermal shift assay [13]: bound only to BRAF V600E | BRAF-MEK1 binding [14]: but not parental or control cells | histopathological analyses and weights of diverse organs ([15]; 200 mg/kg/day intraperitoneally, ~4 weeks): did not cause notable differences | components of the gut microbiota ([15]; chronic treatment): altered proportions but no loss of any components | effect on the mouse gut microbiome ([15]; chronic treatment): had no obvious effect | total DNA amount extracted from bacteria in mouse feces ([15]; chronic treatment): unaltered total DNA amount | well-tolerated dose ([15]; intraperitoneally, ~4 weeks): 200 mg/kg/day | toxicity in vivo ([15]; mouse, in vivo): does not cause obvious toxicity in vivo | complete blood counts (CBC) or hematopoietic properties ([15]; representative A375 xenograft mice, compared to the water-treated group): did not alter | binding in thermal melt shift assay [16]: directly binds | BRAF V600E-MEK1 binding [17]: selectively inhibited | MEK-ERK activation [17]: selectively inhibited | cell proliferation [17]: selectively inhibited | body weight ([18]; effect of treatment): did not affect body weight | serum cholesterol levels ([18]; effect of treatment): did not affect; also recorded: had no effect | serum glucose levels ([18]; effect of treatment): did not affect; also recorded: had no effect | serum levels of 3HB (β-hydroxybutyrate) ([18]; effect of treatment): did not affect; also recorded: had no effect | serum levels of acetoacetate ([18]; effect of treatment): had no effect | acetoacetate levels in tumors [18, 23]: did not affect | β-hydroxybutyrate levels in tumors [18, 23]: did not affect | competition with acetoacetate for BRAF V600E binding ([19]; BRAF V600E pre-treated with 14C-labeled acetoacetate, increasing concentrations of DHAA): competed with acetoacetate for BRAF V600E binding in a dose-dependent manner | block of acetoacetate binding by pre-treatment ([19]; DHAA 200 μM pre-treatment, 14C-labeled acetoacetate up to 400 μM): sufficient to block acetoacetate binding | competition with acetoacetate for BRAF V600E binding [19, 21]: sufficient to compete | Ki ([19]; in the presence of 300 μM 14C-labeled acetoacetate): ~88 µM | binding ability of BRAF V600E mutant forms to acetoacetate ([19]; treatment with DHAA, BRAF V600E and tBRAF V600E): significant decrease in binding ability
